In US4518789A, “Phenyl alpha-acyloxyacetamide derivatives and their therapeutic use” (priority 1983, dated 1985):

Tests used:
[1] = system: calming or sedative effects; assay: Tranquilizing effect, oral administration in dogs; type: in vivo; conditions: test compounds 5 to 10 mg per kg
Experimental: (§1) Hairless mice, white hairy mice and dogs were used in these studies.
Three dogs weighing between 10 to 20 kg were given orally N-phenethyl phenyl-alpha-acetoxyacetamide or N-ethyl phenyl-alpha-acetoxyacetamide in gelating capsules at doses of 5 to 10 mg per kg.

[2] = system: calming or quieting behaviour; assay: Tranquilizing effect, subcutaneous administration in mice; type: in vivo, hairless mice, white hairy mice; conditions: 1 to 2% solution
Experimental: as §1
N-phenethyl phenyl-alpha-acetoxyacetamide, N-ethyl phenyl-alpha-acetoxyacetamide or other phenyl-alpha-acyloxyacetamide derivative of the instant invention was prepared as a 1 to 2% solution or as gelatin capsules containing 75 to 300 mg per capsule of the active ingredient. Hairless mice or white hairy mice five in each group were injected subcutaneously with the test solution in a volume of 0.1 ml. The same procedure was repeated once more 3 hours later. For the next 8 hours and also at 24 hours later, all the mice were carefully observed and examined for any signs and evidences of calming or quieting effects caused by the test compound.
Parameters and criteria used for sedative or tranquilizing effect were the same as that described in the foregoing section.

[3] = system: hind limb arthritis secondary to hip dysplasia; assay: Analgesic effects, oral, dogs with arthritis; type: in vivo; conditions: two dogs, oral approximately 8 mg per kg
Experimental: To test whether in addition to tranquilizing effects in animals, analgesic properties of phenyl-alpha-acyloxyacetamide derivatives of the instant invention might exist we administered systemically these compounds to dogs. N-ethyl phenyl-alpha-acetoxyacetamide or N-phenethyl phenyl-alpha-acetoxyacetamide in single oral doses of approximately 8 mg per kg was given to two dogs disabled with hind limb arthritis secondary to hip dysplasia. One dog weighed 23 kg; the other weighed 28 kg.
The disability in both animals was such that they were unable to jump up upon a test table, 45 cm L×45 cm W×45 cm H, on which had been placed a piece of food as an inducement; nor were they able to run about or romp, their movements being limited to walking with evident stiffness of gait.

pruritus ani = assay: Topical treatment of pruritus ani; type: in vivo, human; conditions: 1 to 5 percent, regular basis
Excerpt: (§2) It has already been established through tests in animals and humans that phenyl alpha-acyloxyacetamide derivatives are therapeutically effective for topical or systemic treatment of various dermatologic and other conditions.

[4] = system: itch provoked by papain or histamine dihydrochloride; assay: Anti-pruritic effect on normal human skin (papain or histamine induced itch); type: in vivo; conditions: 2 to 5% topical, normal human adult volunteers
Experimental: Itch provoking pruritic compositions were prepared as follows: papain 0.5% solution was prepared by dissolving papain 50 mg in 10 ml of saline, and histamine 0.2% solution was prepared by dissolving histamine dihydrochloride 20 mg in 10 ml of saline. Itching was provoked or induced as follows: a pruritic composition in a volume of 0.05 ml containing papain or histamine dihydrochloride as a pruritic agent was topically applied on the flexor forearm of normal human adult volunteers and the skin site was gently pricked rapidly through the solution with a 26-gauge needle to the level of the papillary dermis as described by Bernstein et al. (J. E. Bernstein, R. M. Swift, K. Soltani and A. L. Lorincz: Antipruritic Effect of an Opiate Antagonist, Naloxone Hydrochloride in Journal of Investigative Dermatology 78, 82-83, 1982). This technique provoked or induced itch sensation at the test skin site within a few minutes following the topical application of the pruritic composition. After itch sensation had been induced a composition containing 2 to 5% N-ethyl phenyl-alpha-acetoxyacetamide, N-phenethyl phenyl-alpha-acetoxyacetamide or other phenyl-alpha-acyloxyacetamide derivatives of the instant invention was topically applied on the pruritic skin site. The vehicle alone cream containing no active ingredient was used as a control.

[5] = system: scratching or licking induced by pruritic agent; assay: Screening for anti-pruritic effect, systemic (subcutaneous) administration, hairless mouse challenged with pruritic agent; type: in vivo; conditions: 5% solution 0.1 ml subcutaneous, twice
Experimental: Either the mouse or the rat may be used as a screening model for anti-pruritic compounds. Again, the hairless mouse or the fuzzy rat is a preferred strain in each species.
A test composition in a volume of 0.1 ml containing 5% phenyl-alpha-acyloxyacetamide derivative in solution was injected subcutaneously to the hairless mouse. The same procedure was repeated once more 3 hours later. Two hours after the second injection the mouse was challenged with a pruritic composition either applied topically or administered subcutaneously. When the challenging composition containing a pruritic agent was given topically the solution in a volume of 0.05 ml was applied to the left dorsal skin. A control vehicle solution containing no pruritic agent in the same volume of 0.05 ml was topically applied on the right dorsal skin. For the next 30 minutes the mouse was carefully observed for signs and symptoms of scratching or licking at the skin sites where the pruritic composition and the control vehicle solution had been topically applied.
If the mouse scratched or licked only the left side of the skin where the pruritic composition had been topically applied the test composition which was injected subcutaneously at two and five hours earlier was determined to have no anti-pruritic property. […]

[6] = system: Eczemas, and Other Pruritic Disorders; assay: Topical anti-pruritic effect in patients with pruritic disorders; type: in vivo, human; conditions: first category compounds, 2 to 5%
Excerpt: Patients with various kinds of pruritic disorders participated in this study. The cases included atopic eczema, patchy eczema, chronic eczema of the hands, lichen simplex chronicus, contact allergic eczema, pruritus of the aged, pruritus of hepatic origin, pruritus ani, pruritus vulvae, scalp pruritus and pruritus of other disorders such as mycosis fungoides, psoriasis and pityriasis rubra pilaris.
Therapeutic compositions containing phenyl-alpha-acyloxyacetamides at 2 to 5% concentrations in cream, ointment, lotion or solution were prepared according to the Examples. The medicinal compositions were topically applied by the patient in an amount sufficient to cover the itching area of skin. Applications were made one to two times daily or as frequently as necessary and without occlusive dressings.
Two parameters have been used to compare degrees of anti-pruritic effect of phenyl-alpha-acyloxyacetamides. The first parameter is whether the relief of itching is complete (2+) or incomplete (1+). The second parameter is the number of hours the patient stays free of pruritus after the initial anti-pruritic effect. […] Therefore, the overall anti-pruritic effect of a compound may range from 2+ to 4+. […] 4+ for complete relief and lasting for more than 8 hours.

[7] = system: calming or quieting behaviour; assay: Tranquilizing effect, topical administration in hairless mice; type: in vivo; conditions: 5% solution topical
Experimental: Hairless mice, ten in each group, were used in this study. N-phenethyl phenyl-alpha-acetoxyacetamide, N-ethyl phenyl-alpha-acetoxyacetamide or other phenyl-alpha-acyloxyacetamide derivative of the instant invention was prepared as a 5% solution in acetone: water, 8:2 or ethanol:water, 8:2. A test solution was topically applied to the left dorsal skin of hairless mice. The same topical applications were repeated three times at 30 minute intervals. A vehicle alone solution containing acetone and water or ethanol and water was used as a control. For the next 8 hours and also 24 hours later all mice were carefully observed and examined for any signs or evidence of calming or quieting effects caused by the test compound.
Normally when a mouse is picked up by the tail with thumb and forefinger the mouse struggles trying to free itself; and if the mouse is placed on a horizontal metallic grid uniformly spaced at 8 mm, the mouse nervously pulls itself across the grid, again trying to free itself from the restraining grip of the fingers.
If during the above observation period the mouse behaved the same before and after the topical treatment when picked up by the tail and placed on the metallic grid, the test compound was determined to have no significant tranquilizing effect by topical administration.

common scratching = assay: Systemic treatment of domestic dogs for common scratching; type: in vivo; conditions: oral single dose 5 to 10 mg per kg
Excerpt: as §2

SMILES | tranquilizing / sedative effect [1] | tranquilizing effect [2] | physical incapacities [3] | time after administration at which incapacities were diminished [3] | relief from itching and scratching (pruritus ani) | Anti-pruritic Effect [4] | Anti-pruritic Effect [5] | Anti-pruritic Effect [6] | tranquilizing effect [7] | relief of scratching, duration (common scratching)
CCNC(=O)C(OC(C)=O)c1ccccc1 (stereo not drawn) [N-ethyl phenyl-alpha-acetoxyacetamide] | no detectable signs of sedation | no detectable signs of sedation | diminished | Two to three | complete relief from itching and scratching | substantial anti-pruritic effect | substantial anti-pruritic effect | 4+ (complete relief and lasting for more than 8 hours) | no detectable signs of sedation | more than 8 hours
CC(=O)OC(C(=O)NCCc1ccccc1)c1ccccc1 (stereo not drawn) [N-phenethyl phenyl-alpha-acetoxyacetamide] | mild tranquilizing effect | marked degrees of calming effect | diminished | Two to three | complete relief from itching and scratching | substantial anti-pruritic effect | substantial anti-pruritic effect | 4+ (complete relief and lasting for more than 8 hours) | marked degrees of tranquilizing effect | more than 8 hours
